{
  "source": "patent US20070026090A1",
  "about": "“Treatment and prevention of inflammatory disease and mitochondrial dysfunction with high dose selenium” (priority 2003, published 2007)",
  "key": {"[1]": {"test_system": "mitochondrial DNA (D-loop region)", "assay": "Mitochondrial DNA analysis in the colon (D-loop PCR)", "type": "in vivo, rat", "experimental": "Mitochondrial DNA analysis in the colon: Tissue content of mitochondrial DNA was determined using specific primers for the D-loop region in the mitochondrial DNA. Mitochondrial colon tissue genomic DNA, was prepared using the Promega Wizard Genomic DNA Purification Kit (Promega Corp, Madison, Wis.). Mitochondrial DNA was amplified by the PCR reaction: Twenty cycles were used for the amplification with 25 ng total tissue DNA as template. Saturation in intensity of PCR products was observed after 24 cycles.\nPrimers: Left (sense) 5′-[…]-3′ (SEQ ID NO:1), corresponding to nucleotides 468 to 489 of rat mitochondrial D-loop region DNA (GenBank Accession No. X52757.1).\nRight (antisense) 5′-[…]-3′ (SEQ ID NO:2) corresponding to nucleotides 988 to 967 of rat mitochondrial D-loop DNA (GenBank Accession No. X52757.1).\nThe expected PCR product was 520 bp. Actual PCR product was approximately 520 bp, measured on 1.25% agarose gel in TAE containing ethidium bromide."}, "[2]": {"test_system": "myeloperoxidase (MPO) activity", "assay": "Tissue inflammation: myeloperoxidase activity in colon tissue", "type": "in vivo, rat", "conditions": "supplemented rats, 24 h after TNBS; unsupplemented rats greater than 30-fold", "experimental": "Tissue inflammation-Myeloperoxidase activity: Colonic tissue samples (approximately 100-120 mg) were collected 4 cm proximal to the anus. Each tissue sample was homogenized in a solution containing 0.5% hexa-decyl-trimethyl-ammonium bromide (HTAB) (Sigma-Aldrich Corp, St. Louis, Mo.) buffer (0.5% HTAB in 50 mM phosphate buffer, pH 6.0). Tissue samples were minced in a test tube containing 1 ml of HTAB buffer on ice and homogenized with a Polytron tissue homogenizer (Brinkmann Instruments, Inc, Westbury N.Y., USA). The pooled homogenates and washes were sonicated in water for 20 seconds. After three cycles of freeze-thawing, the sonicated samples were centrifuged in cold for 15 min. at 40,000×g. Myeloperoxidase activity (MPO) was assayed in the supernatant as described by Krawisz (Krawisz et al., 1984) after addition of O-dianizidine-HCl (Sigma-Aldrich Corp, St Louis, Mo.) and 0.15% (v/v) H2O2 as a substrate for the MPO. The rate of change in absorbance was measured spectrophotometrically at 460 nm, and is expressed as the amount of enzyme necessary to produce a change in absorbance of 1.0 unit per minute (1 unit) per gram wet weight tissue."}, "[3]": {"test_system": "GAPDH", "assay": "GAPDH housekeeping control transcript (RTPCR)", "type": "cell-based, murine", "experimental": "Reverse transcriptase-PCR (RTPCR): Total RNA was prepared and isolated by the Tri-Reagent method according to the manufacturer's protocol (Sigma, St. Louis Mo., USA). Total RNA (1 μg) was converted into cDNA using Reverse-iT first strand synthesis kit (Abgene, UK). Amplification of MnSOD and UCP2 sequences was performed by incubating 10 ng equivalents of DNA with the following oligonucleotide primers:\nThe sequence of glyceraldehyde-3-phosphate dehydrogenase (GAPDH) was amplified as a control using the following primers: Left (sense) 5′-[…]-3′(SEQ ID NO: 9) corresponding to nucleotides 364 to 382 of mouse mRNA (GenBank Accession No. XM 195823.21).\nRight (antisense) 5′[…]-3′ (SEQ ID NO: 10) corresponding to nucleotides 683 to 703 of mouse mRNA (GenBank Accession No. XM 195823.21). The expected PCR product was 339 bp. Actual PCR product was approximately 340 bp, measured on 1.25% agarose gel in TAE containing ethidium bromide.\nPCR was performed with 28 cycles (25 cycles for GAPDH) of 30 seconds at 96° C., 30 seconds at 58° C. and 1 min at 72° C. RTPCR products were analyzed on 1.3% (w/v) agarose gels."}, "[4]": {"test_system": "myocarditic Coxsackie virus B3", "conditions": "5 ppm in the water; cited from earlier work"}, "[5]": {"test_system": "NF-κB", "assay": "NF-κB binding activity of nuclear extracts of treated macrophages (EMSA)", "type": "cell-based, murine", "experimental": "(§1) Cell culture: Murine J774.2 macrophages (kindly provided by Prof. Dov Zipori from the Weizmann Institute of Science) were grown in RPMI medium supplemented with 10% (w/v) fetal calf serum, penicillin (100 U/ml), streptomycin (100 μg/ml) and 1× glutamine at 37° C. in a humidified atmosphere consisting of 95% air and 5% CO2. Experiments were performed on cells at 60% confluence.\n(§2) Nuclear extracts: Nuclear Extracts were prepared using a slight modification of the method of Dignam et al (23). Treated cells were washed with cold PBS, scraped and centrifuged. Hypotonic buffer (1 ml, 20 mM HEPES pH 7.0, 10 mM KCl, 1 mM mGCl2, 0.5 mM DTT, 0.1% Triton X-100, 20% glycerol, 2 mM PMSP, 1 mg/ml Aprotonin and Leupeptin) was added to the cell pellets, the pellets were disrupted by pipetting, and centrifuged 3000 RPM for 5 min. The pellets were re-suspended in 100 μl cold extraction buffer (20 mM HEPES pH 7.0, 10 mM KCl, 1 mM mGCl2, 0.5 mM DTT, 0.1% Triton X-100, 20% glycerol, 2 mM PMSF, 1 mg/ml Aprotonin and Leupeptin, 420 mM NaCl). The samples were rotated for 20 min at 4° C., centrifuged 15,000 RPM for 10 min, and supernatants collected. Protein content was measured using Bradford reagent. Samples were stored frozen at minus 70° C.\n(§3) Electromobility shift assay (EMSA)—Gel shift assays were performed according to the gel shift assay protocol from Promega Corp. (San Luis Obispo, Calif.). A 22-mer double-stranded NF-κB consensus oligonucleotide 5′-[…]-3′ (SEQ ID NO:3), and Sp1 consensus oligonucleotide 5′-[…]-3(SEQ ID NO:4), were labeled with 32P. For each reaction, 2 μg of nuclear extract were incubated with 2 μl of 5× binding buffer for 5 min., 1 μl of the ^32P-labeled oligonucleotide was added at room temperature for 20 min., the samples were prepared by adding 1 μl of dye free loading buffer, and separated using 6% non-denaturing acrylamide gel electrophoresis. The gel was dried and exposed to a phosphoimaging screen for 18 hours and then visualized with a phosphoimager. For specificity, 1 μl of unlabeled consensus oligonucleotide was used to compete with the labeled probe."}, "[6]": {"test_system": "Sp1", "assay": "Sp1 binding activity of nuclear extracts of treated macrophages (EMSA)", "type": "cell-based, murine", "experimental": "as §1, §2, §3"}},
  "note": "“Also recorded” adds a separate entry of the source.",
  "data": [
    {"compound": "[Se]", "note": "[selenium]", "values": [
      {"measurement": "mitochondrial DNA in colon tissue, colitis-induced rats", "setting": "[1]; 24 h after TNBS, supplemented vs unsupplemented (FIG. 6)", "value": "intact mitochondrial DNA; also recorded: protects against the loss"},
      {"measurement": "mitochondrial DNA in colon tissue, uninduced rats", "setting": "[1]; TNBS−, Se suppl+ (FIG. 6)", "value": "No change"},
      {"measurement": "myeloperoxidase elevation following hapten administration, compared to uninduced controls", "setting": "[2]", "value": "approximately 5 fold"},
      {"measurement": "GADPH expression, activated macrophages", "setting": "[3]; LPS + INFγ activated (FIG. 11)", "value": "No effect"},
      {"measurement": "GADPH RNA levels", "setting": "[3]; resting J774.2 (FIGS. 9, 10)", "value": "No effect"},
      {"measurement": "inflammatory lesions and necrosis", "setting": "[4]", "value": "no effect"},
      {"measurement": "NF-κB translocation, resting unactivated macrophages", "setting": "[5]; 0.5-5 μM, 72 hours (FIG. 12A)", "value": "no effect"},
      {"measurement": "lowest concentration with dramatic effect on NF-κB translocation, activated macrophages", "setting": "[5]; 72 hours, then 6 hours LPS + INFγ, range 0.5-5 μM (FIG. 12A)", "value": 0.5, "unit": "µM"},
      {"measurement": "nuclear import of NF-κB, activated macrophages", "setting": "[5]; concentration-dependent (FIG. 12A)", "value": "dramatically reduced"},
      {"measurement": "lowest concentration with dramatic effect on Sp-1 binding, activated macrophages", "setting": "[6]; 72 hours, then 6 hours LPS + INFγ, range 0.5-5 μM (FIG. 13A lower panel)", "value": 5, "unit": "µM"},
      {"measurement": "lowest concentration with dramatic effect on Sp-1 binding, resting macrophages", "setting": "[6]; 72 hours, unactivated (FIG. 13A upper panel)", "value": 5, "unit": "µM"},
      {"measurement": "binding of Sp-1, activated macrophages", "setting": "[6]; concentration-dependent (FIG. 13A)", "value": "dramatically reduced"}
    ]}
  ]
}
